# Tested on: IGROV1 complex spheroids (HUVEC, MSC), viability % test/control
# Assay: Anticancer human tumor IGROV1 cell line growth inhibition [GQUAD];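 further: spheroids exposed to compounds for 7 days before readout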;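 on viability, T/C: 100% = DMSO vehicle control viability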
# Details: for IC50: curve of first compound; for viability, T/C: stronger effect = lower value
# Procedure, shortened: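 Viability of tumor cells grown as complex spheroids with endothelial and stromal cells, exposed to drug combinations. Top concentration at or near clinical Cmax (else 10 microM), diluted in half-log increments.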
# [1] = second compound 0.0316 µM, first compound 0.0316 µM
# [2] = second compound 0.0316 µM, first compound 0.1 µM
# [3] = second compound 0.0316 µM, first compound 0.316 µM
# [4] = second compound 0.0316 µM, first compound 1 µM
# [5] = second compound 0.0316 µM, first compound 3.16 µM
# [6] = second compound 0.0316 µM, first compound 10 µM
# [7] = second compound 0.1 µM, first compound 0.0316 µM
# [8] = second compound 0.1 µM, first compound 0.1 µM
# [9] = second compound 0.1 µM, first compound 0.316 µM
# [10] = second compound 0.1 µM, first compound 1 µM
# [11] = second compound 0.1 µM, first compound 3.16 µM
# [12] = second compound 0.1 µM, first compound 10 µM
# [13] = second compound 0.316 µM, first compound 0.0316 µM
# [14] = second compound 0.316 µM, first compound 0.1 µM
# [15] = second compound 0.316 µM, first compound 0.316 µM
# [16] = second compound 0.316 µM, first compound 1 µM
# [17] = second compound 0.316 µM, first compound 3.16 µM
# [18] = second compound 0.316 µM, first compound 10 µM
# [19] = second compound 1 µM, first compound 0.0316 µM
# [20] = second compound 1 µM, first compound 0.1 µM
# [21] = second compound 1 µM, first compound 0.316 µM
# [22] = second compound 1 µM, first compound 1 µM
# [23] = second compound 1 µM, first compound 3.16 µM
# [24] = second compound 1 µM, first compound 10 µM
# [25] = second compound 3.16 µM, first compound 0.0316 µM
# [26] = second compound 3.16 µM, first compound 0.1 µM
# [27] = second compound 3.16 µM, first compound 0.316 µM
# [28] = second compound 3.16 µM, first compound 1 µM
# [29] = second compound 3.16 µM, first compound 3.16 µM
# [30] = second compound 3.16 µM, first compound 10 µM
# [31] = second compound 10 µM, first compound 0.0316 µM
# [32] = second compound 10 µM, first compound 0.1 µM
# [33] = second compound 10 µM, first compound 0.316 µM
# [34] = second compound 10 µM, first compound 1 µM
# [35] = second compound 10 µM, first compound 3.16 µM
# [36] = second compound 10 µM, first compound 10 µM
smiles,measurement,setting,value
C#Cc1c(F)ccc2cc(O)cc(-c3ncc4c(N5CC6CCC(C5)N6)nc(OCC56CCCN5CC(F)C6)nc4c3F)c12 (stereo not drawn) + CN(C)c1ccc(Nc2c3ccc(NC(=O)CCN4CCCC4)cc3nc3cc(NC(=O)CCN4CCCC4)ccc23)cc1,IC50,second compound 0.0316 µM,> 10 µM
same,IC50,second compound 0.1 µM,> 10 µM
same,IC50,second compound 0.316 µM,> 10 µM
same,IC50,second compound 1 µM,8.19 µM
same,IC50,second compound 3.16 µM,5.09 µM
same,IC50,second compound 10 µM,0.378 µM
same,"viability, T/C",[1],106%
same,"viability, T/C",[2],76.6%
same,"viability, T/C",[3],97.9%
same,"viability, T/C",[4],78.1%
same,"viability, T/C",[5],84.5%
same,"viability, T/C",[6],62.2%
same,"viability, T/C",[7],97.3%
same,"viability, T/C",[8],83.7%
same,"viability, T/C",[9],88%
same,"viability, T/C",[10],84.3%
same,"viability, T/C",[11],93%
same,"viability, T/C",[12],62.1%
same,"viability, T/C",[13],87.8%
same,"viability, T/C",[14],99.1%
same,"viability, T/C",[15],76.3%
same,"viability, T/C",[16],86%
same,"viability, T/C",[17],89.5%
same,"viability, T/C",[18],54%
same,"viability, T/C",[19],86.1%
same,"viability, T/C",[20],89%
same,"viability, T/C",[21],86.7%
same,"viability, T/C",[22],73.6%
same,"viability, T/C",[23],74.1%
same,"viability, T/C",[24],44.8%
same,"viability, T/C",[25],86.4%
same,"viability, T/C",[26],85.4%
same,"viability, T/C",[27],87.7%
same,"viability, T/C",[28],79%
same,"viability, T/C",[29],66.2%
same,"viability, T/C",[30],27.9%
same,"viability, T/C",[31],50%
same,"viability, T/C",[32],50.4%
same,"viability, T/C",[33],59.8%
same,"viability, T/C",[34],38%
same,"viability, T/C",[35],17.2%
same,"viability, T/C",[36],5.16%
COc1cccc2c1C(=O)c1c(O)c3c(c(O)c1C2=O)CC(O)(C(=O)CO)CC3OC1CC(N)C(O)C(C)O1 (stereo not drawn) + CN(C)c1ccc(Nc2c3ccc(NC(=O)CCN4CCCC4)cc3nc3cc(NC(=O)CCN4CCCC4)ccc23)cc1,IC50,second compound 0.0316 µM,0.0494 µM
same,IC50,second compound 0.1 µM,0.049 µM
same,IC50,second compound 0.316 µM,0.0399 µM
same,IC50,second compound 1 µM,0.0324 µM
same,IC50,second compound 3.16 µM,0.0413 µM
same,IC50,second compound 10 µM,< 0.0316 µM
same,"viability, T/C",[1],67.7%
same,"viability, T/C",[2],21.5%
same,"viability, T/C",[3],9.86%
same,"viability, T/C",[4],3.36%
same,"viability, T/C",[5],0.13%
same,"viability, T/C",[6],1.04%
same,"viability, T/C",[7],67.9%
same,"viability, T/C",[8],20.4%
same,"viability, T/C",[9],9.01%
same,"viability, T/C",[10],3.31%
same,"viability, T/C",[11],0.07%
same,"viability, T/C",[12],1.06%
same,"viability, T/C",[13],57.2%
same,"viability, T/C",[14],21.7%
same,"viability, T/C",[15],9.64%
same,"viability, T/C",[16],3.48%
same,"viability, T/C",[17],0.07%
same,"viability, T/C",[18],1.01%
same,"viability, T/C",[19],50.5%
same,"viability, T/C",[20],25.7%
same,"viability, T/C",[21],7.36%
same,"viability, T/C",[22],2.77%
same,"viability, T/C",[23],0.08%
same,"viability, T/C",[24],0.98%
same,"viability, T/C",[25],59.6%
same,"viability, T/C",[26],18.7%
same,"viability, T/C",[27],8.4%
same,"viability, T/C",[28],3.44%
same,"viability, T/C",[29],0.13%
same,"viability, T/C",[30],0.94%
same,"viability, T/C",[31],33.5%
same,"viability, T/C",[32],15.6%
same,"viability, T/C",[33],5.82%
same,"viability, T/C",[34],3.29%
same,"viability, T/C",[35],0.17%
same,"viability, T/C",[36],1.15%
Nc1ccn(C2OC(CO)C(O)C2(F)F)c(=O)n1 (stereo not drawn) + CN(C)c1ccc(Nc2c3ccc(NC(=O)CCN4CCCC4)cc3nc3cc(NC(=O)CCN4CCCC4)ccc23)cc1,IC50,second compound 0.0316 µM,< 0.0316 µM
same,IC50,second compound 0.1 µM,< 0.0316 µM
same,IC50,second compound 0.316 µM,< 0.0316 µM
same,IC50,second compound 1 µM,< 0.0316 µM
same,IC50,second compound 3.16 µM,< 0.0316 µM
same,IC50,second compound 10 µM,< 0.0316 µM
same,"viability, T/C",[1],11.5%
same,"viability, T/C",[2],6.58%
same,"viability, T/C",[3],6.05%
same,"viability, T/C",[4],6.75%
same,"viability, T/C",[5],6.08%
same,"viability, T/C",[6],4.2%
same,"viability, T/C",[7],12.7%
same,"viability, T/C",[8],5.68%
same,"viability, T/C",[9],6.81%
same,"viability, T/C",[10],6.8%
same,"viability, T/C",[11],5.93%
same,"viability, T/C",[12],4.32%
same,"viability, T/C",[13],13.1%
same,"viability, T/C",[14],5.27%
same,"viability, T/C",[15],6.2%
same,"viability, T/C",[16],6.03%
same,"viability, T/C",[17],5.63%
same,"viability, T/C",[18],6.07%
same,"viability, T/C",[19],11.6%
same,"viability, T/C",[20],5.93%
same,"viability, T/C",[21],7.47%
same,"viability, T/C",[22],6.02%
same,"viability, T/C",[23],6.39%
same,"viability, T/C",[24],5.81%
same,"viability, T/C",[25],10.2%
same,"viability, T/C",[26],5.96%
same,"viability, T/C",[27],6.33%
same,"viability, T/C",[28],5.69%
same,"viability, T/C",[29],5.78%
same,"viability, T/C",[30],4.9%
same,"viability, T/C",[31],6.83%
same,"viability, T/C",[32],4.85%
same,"viability, T/C",[33],4.16%
same,"viability, T/C",[34],4.94%
same,"viability, T/C",[35],4.47%
same,"viability, T/C",[36],4.53%
O=c1[nH]cc(F)c(=O)[nH]1 + CN(C)c1ccc(Nc2c3ccc(NC(=O)CCN4CCCC4)cc3nc3cc(NC(=O)CCN4CCCC4)ccc23)cc1,IC50,second compound 0.0316 µM,6.41 µM
same,IC50,second compound 0.1 µM,6.78 µM
same,IC50,second compound 0.316 µM,6.4 µM
same,IC50,second compound 1 µM,5.9 µM
same,IC50,second compound 3.16 µM,6.18 µM
same,IC50,second compound 10 µM,3.69 µM
same,"viability, T/C",[1],112%
same,"viability, T/C",[2],96.7%
same,"viability, T/C",[3],104%
same,"viability, T/C",[4],82.3%
same,"viability, T/C",[5],90.6%
same,"viability, T/C",[6],27.7%
same,"viability, T/C",[7],97.6%
same,"viability, T/C",[8],94%
same,"viability, T/C",[9],83.1%
same,"viability, T/C",[10],84.3%
same,"viability, T/C",[11],90.4%
same,"viability, T/C",[12],29.8%
same,"viability, T/C",[13],92.1%
same,"viability, T/C",[14],87.8%
same,"viability, T/C",[15],96.8%
same,"viability, T/C",[16],88.2%
same,"viability, T/C",[17],83%
same,"viability, T/C",[18],29.1%
same,"viability, T/C",[19],69.5%
same,"viability, T/C",[20],72%
same,"viability, T/C",[21],78.8%
same,"viability, T/C",[22],90.8%
same,"viability, T/C",[23],90.4%
same,"viability, T/C",[24],24.2%
same,"viability, T/C",[25],73.3%
same,"viability, T/C",[26],84.8%
same,"viability, T/C",[27],94.1%
same,"viability, T/C",[28],86.2%
same,"viability, T/C",[29],81%
same,"viability, T/C",[30],27.7%
same,"viability, T/C",[31],66.5%
same,"viability, T/C",[32],58%
same,"viability, T/C",[33],52.8%
same,"viability, T/C",[34],70.1%
same,"viability, T/C",[35],55.2%
same,"viability, T/C",[36],16.4%

# Reference: PubChem BioAssay AID2060486 (Molecular Pharmacology Branch, DTP, NCI, 2025)
